Columns and labels:
Assay type in all cases: in vivo
[1] = tested on: Myzus persicae (Green Peach Aphid); assay: Example B6: Myzus persicae systemic activity, pea seedling roots in test solution; conditions: 144 h, test rate of 24 ppm, 6 days after placing seedlings into test solutions
Experimental: Example B6: Myzus persicae (Green Peach Aphid). Systemic Activity
Roots of pea seedlings infested with an aphid population of mixed ages were placed directly into aqueous test solutions prepared from 10,000 DMSO stock solutions. The samples were assessed for mortality 6 days after placing seedlings into test solutions.

[2] = tested on: Bemisia tabaci (Cotton White Fly); assay: Example B1: Bemisia tabaci feeding/contact activity, cotton leaf discs; conditions: foliar, 144 h, application rate of 200 ppm, 6 days after incubation, adult white flies
Experimental: Example B1: Bemisia tabaci (Cotton White Fly): Feeding/Contact Activity
Cotton leaf discs were placed on agar in 24-well microtiter plates and sprayed with aqueous test solutions prepared from 10,000 ppm DMSO stock solutions. After drying the leaf discs were infested with adult white flies. The samples were checked for mortality 6 days after incubation.

[3] = tested on: Diabrotica balteata (Corn Root Worm); assay: Example B2: Diabrotica balteata, sprayed maize sprouts, L2 larvae; conditions: Diabrotica balteata, 96 h; application rate of 200 ppm; 4 days after infestation; L2 larvae; read-out: effect in at least one of the two categories (mortality or growth inhibition)
Experimental: Example B2: Diabrotica balteata (Corn Root Worm)
Maize sprouts placed onto an agar layer in 24-well microtiter plates were treated with aqueous test solutions prepared from 10,000 ppm DMSO stock solutions by spraying. After drying, the plates were infested with L2 larvae (6 to 10 per well). The samples were assessed for mortality and growth inhibition in comparison to untreated samples 4 days after infestation. The following compounds gave an effect of at least 80% in at least one of the two categories (mortality or growth inhibition) at an application rate of 200 ppm:
(§1) Insecticidal action against Diabrotica balteata (Corn root worm), Plutella xylostella (Diamond black moth), and Spodoptera littoralis (Egyptian cotton leaf worm). The tests were carried out as described in biological examples B2, B8 and B9, respectively, with the larval feeding/contact activity (mortality only) being reported as Breakpoint (BP80) values in parts per million (i.e. the lowest concentration which gives 80% larval mortality).

[4] = tested on: Myzus persicae (Green Peach Aphid); assay: Example B5: Myzus persicae feeding/contact activity, sunflower leaf discs; conditions: foliar, 144 h, application rate of 200 ppm, 6 days after infestation
Experimental: Example B5: Myzus persicae (Green Peach Aphid): Feeding/Contact Activity
Sunflower leaf discs were placed onto agar in a 24-well microtiter plate and sprayed with aqueous test solutions prepared from 10,000 ppm DMSO stock solutions. After drying, the leaf discs were infested with an aphid population of mixed ages. The samples were assessed for mortality 6 days after infestation.

[5] = tested on: Myzus persicae (Green Peach Aphid); assay: Example B7: Myzus persicae intrinsic activity, sucrose solution through Parafilm; conditions: 120 h, test rate of 12 ppm, 5 days after infestation
Text: Example B7: Myzus persicae (Green Peach Aphid). Intrinsic Activity
Test compounds prepared from 10,000 ppm DMSO stock solutions were applied by pipette into 24-well microtiter plates and mixed with sucrose solution. The plates were closed with a stretched Parafilm. A plastic stencil with 24 holes was placed onto the plate and infested pea seedlings were placed directly on the Parafilm. The infested plate was closed with a gel blotting paper and another plastic stencil and then turned upside down. The samples were assessed for mortality 5 days after infestation.

[6] = tested on: Plutella xylostella (Diamond Back Moth); assay: Example B8: Plutella xylostella, artificial diet, L2 larvae; conditions: Plutella xylostella, 120 h; application rate of 200 ppm; 5 days after infestation; L2 larvae; read-out: effect in at least one of the two categories (mortality or growth inhibition)
Experimental: Example B8: Plutella xylostella (Diamond Back Moth)
24-well microtiter plates with artificial diet were treated with aqueous test solutions prepared from 10,000 ppm DMSO stock solutions by pipetting. After drying, the plates were infested with L2 larvae (10 to 15 per well). The samples were assessed for mortality and growth inhibition in comparison to untreated samples 5 days after infestation. The following compounds gave an effect of at least 80% in at least one of the two categories (mortality or growth inhibition) at an application rate of 200 ppm:
as §1

[7] = tested on: Spodoptera littoralis (Egyptian Cotton Leaf Worm); assay: Example B9: Spodoptera littoralis, cotton leaf discs, L1 larvae; conditions: Spodoptera littoralis, foliar, 72 h; application rate of 200 ppm; 3 days after infestation; L1 larvae
Experimental: Example B9: Spodoptera littoralis (Egyptian Cotton Leaf Worm)
Cotton leaf discs were placed onto agar in 24-well microtiter plates and sprayed with aqueous test solutions prepared from 10,000 ppm DMSO stock solutions. After drying the leaf discs were infested with five L1 larvae. The samples were assessed for mortality, anti-feeding effect, and growth inhibition in comparison to untreated samples 3 days after infestation. Control of Spodoptera littoralis by a test sample is given when at least one of the categories mortality, anti-feedant effect, and growth inhibition is higher than the untreated sample.
as §1

[8] = tested on: Euschistus heros (Neotropical Brown Stink Bug); assay: Example B3: Euschistus heros, sprayed soybean leaves, N2 nymphs; conditions: 120 h, application rate of 200 ppm, 5 days after infestation, read-out: effect in at least one of the two categories (mortality or growth inhibition)
Experimental: Example B3: Euschistus heros (Neotropical Brown Stink Bug)
Soybean leaves on agar in 24-well microtiter plates were sprayed with aqueous test solutions prepared from 10,000 ppm DMSO stock solutions. After drying the leaves were infested with N2 nymphs. The samples were assessed for mortality and growth inhibition in comparison to untreated samples 5 days after infestation. The following compounds gave an effect of at least 80% in at least one of the two categories (mortality or growth inhibition) at an application rate of 200 ppm: […]

[9] = tested on: Spodoptera littoralis (Egyptian Cotton Leaf Worm); assay: Example B10: Spodoptera littoralis systemic activity, lettuce grown on treated agar; conditions: 144 h, test rate of 12.5 ppm, 6 days after infestation, read-out: effect in at least one of the three categories (mortality, anti-feeding, or growth inhibition)
Text: Example B10: Spodoptera littoralis (Egyptian Cotton Leaf Worm) Systemic Activity
Test compounds were applied by pipette from 10,000 ppm DMSO stock solutions into 24-well plates and mixed with agar. Lettuce seeds were placed onto the agar and the multi well plate was closed by another plate which contained also agar. After 7 days the compound was absorbed by the roots and the lettuce grew into the lid plate. The lettuce leaves were then cut off into the lid plate. Spodoptera eggs were pipetted through a plastic stencil onto a humid gel blotting paper and the lid plate was closed with it. The samples were assessed for mortality, anti-feedant effect and growth inhibition in comparison to untreated samples 6 days after infestation. The following compounds gave an effect of at least 80% in at least one of the three categories (mortality, anti-feeding, or growth inhibition) at a test rate of 12.5 ppm: […]

[10] = tested on: Frankliniella occidentalis (Western Flower thrips); assay: Example B4: Frankliniella occidentalis feeding/contact activity, sunflower leaf discs; conditions: foliar, 168 h, application rate of 200 ppm, 7 days after infestation, population of mixed ages
Experimental: Example B4: Frankliniella occidentalis (Western Flower thrips): Feeding/Contact Activity
Sunflower leaf discs were placed on agar in 24-well microtiter plates and sprayed with aqueous test solutions prepared from 10,000 DMSO stock solutions. After drying the leaf discs were infested with a Frankliniella population of mixed ages. The samples were assessed for mortality 7 days after infestation.

[11] = tested on: Tetranychus urticae (Two-Spotted Spider Mite); assay: Example B11: Tetranychus urticae feeding/contact activity, bean leaf discs; conditions: foliar, 192 h
Experimental: Example B11: Tetranychus urticae (Two-Spotted Spider Mite): Feeding/Contact Activity
Bean leaf discs on agar in 24-well microtiter plates were sprayed with aqueous test solutions prepared from 10,000 ppm DMSO stock solutions. After drying the leaf discs were infested with a mite population of mixed ages. The samples were assessed for mortality on mixed population (mobile stages) 8 days after infestation.

CCS(=O)(=O)c1nc(-c2ncccn2)sc1-c1nc2cc(C(F)(F)F)ncc2n1C [Example P-9, 4-ethylsulfonyl-5-[3-methyl-6-(trifluoromethyl)imidazo[4,5-c]pyridin-2-yl]-2-pyrimidin-2-yl-thiazole]
≥ 80%: mortality at 24 ppm [1]

CCSc1nc(C2CC2)sc1-c1nc2cc(C(F)(F)F)ncc2n1C [Example P-14, 2-cyclopropyl-4-ethylsulfanyl-5-[3-methyl-6-(trifluoromethyl)imidazo[4,5-c]pyridin-2-yl]thiazole]
≥ 80%: mortality at 200 ppm [2] | percent effect (mortality or growth inhibition) at 200 ppm [3] | mortality at 200 ppm [4] | mortality at 12 ppm [5] | percent effect (mortality or growth inhibition) at 200 ppm [6] | percent control (mortality, anti-feedant effect or growth inhibition) at 200 ppm [7]

CCSc1cc(I)sc1-c1nc2cc(SC(F)(F)F)ncc2n1C [Example I-7, 2-(3-ethylsulfanyl-5-iodo-2-thienyl)-3-methyl-6-(trifluoromethylsulfanyl)imidazo[4,5-c]pyridine]
≥ 80%: percent effect (mortality or growth inhibition) at 200 ppm [3] | percent effect (mortality or growth inhibition) at 200 ppm [8] | mortality at 200 ppm [4] | mortality at 12 ppm [5] | percent effect (mortality or growth inhibition) at 200 ppm [6] | percent effect (mortality, anti-feeding or growth inhibition) at 12.5 ppm [9]

CCSc1cc(-c2ccc(Cl)cc2)sc1-c1nc2cc(C(F)(F)F)ncc2n1C [Example P-6, 2-[5-(4-chlorophenyl)-3-ethylsulfanyl-2-thienyl]-3-methyl-6-(trifluoromethyl)imidazo[4,5-c]pyridine]
≥ 80%: percent effect (mortality or growth inhibition) at 200 ppm [3] | percent effect (mortality or growth inhibition) at 200 ppm [8] | mortality at 200 ppm [10] | percent effect (mortality or growth inhibition) at 200 ppm [6] | percent control (mortality, anti-feedant effect or growth inhibition) at 200 ppm [7] | mortality at 200 ppm [11]

CCS(=O)(=O)c1nc(C2CC2)sc1-c1nc2cc(C(F)(F)F)ncc2n1C [Example P-13, 2-cyclopropyl-4-ethylsulfonyl-5-[3-methyl-6-(trifluoromethyl)imidazo[4,5-c]pyridin-2-yl]thiazole]
≥ 80%: percent effect (mortality or growth inhibition) at 200 ppm [3] | mortality at 200 ppm [4] | mortality at 24 ppm [1] | percent effect (mortality or growth inhibition) at 200 ppm [6] | percent control (mortality, anti-feedant effect or growth inhibition) at 200 ppm [7] | percent effect (mortality, anti-feeding or growth inhibition) at 12.5 ppm [9]

CCS(=O)(=O)c1cc(I)sc1-c1nc2cc(C(F)(F)F)ncc2n1C [Example I-1, 2-(3-ethylsulfonyl-5-iodo-2-thienyl)-3-methyl-6-(trifluoromethyl)imidazo[4,5-c]pyridine]
≥ 80%: percent effect (mortality or growth inhibition) at 200 ppm [3] | mortality at 200 ppm [4] | percent effect (mortality or growth inhibition) at 200 ppm [6] | percent control (mortality, anti-feedant effect or growth inhibition) at 200 ppm [7] | percent effect (mortality, anti-feeding or growth inhibition) at 12.5 ppm [9] | mortality at 200 ppm [11]

— patent US10125139B2, “Pesticidally active polycyclic derivatives with sulfur substituted five-membered ring heterocycles” (Syngenta Participations AG, priority 2015, dated 2018)
